Reference: patent US8124634B2, “CB1 receptor modulators” (7TM Pharma A/S, priority 2006, dated 2012)

Target: T1, human CB1 receptor (Homo sapiens, UniProt P21554)
T1 construct: expressed in transfected cells; membranes
Assay: Cannabinoid Receptor-1 functional assay: inhibition of CP55940-induced [35S]GTPγS binding to membranes of CHO-K1 cells expressing human CB1
Type: biochemical
Settings: 3 nM CP55940, hCB1 membranes, [35S]GTPγS SPA; read-out: IC50 value for antagonizing a CB1 receptor agonist
From the text: Transfection and Cell Culture—The cDNA encoding the human CB1 (Cannabinoid Receptor-1) receptor (GenBank accession number NM_016083) was cloned from a human adipose tissue cDNA library and cloned into the eukaryotic expression vector pcDNA3.1 (Invitrogen).
Chinese Hamster Ovary cells (CHO-K1) stably expressing recombinant human CB1 were generated by transfecting the plasmid containing the coding sequence of the human CB1 receptor in CHO-K1 cells, using lipofectamin, according to the manufacturer instructions. Resistant clones were selected in the presence of 600 μg/ml G418 (Life technology). Stably transfected CHO-K1 cells were maintained in Ham's F-12 culture medium (Invitrogen), supplemented with 10% fetal calf serum (Invitrogen), 100 U/ml penicillin, 100 μg/ml streptomycin (Life Technology), and 600 μg/ml G418.
Cannabinoid Receptor-1 Functional Assay.
Functional activities of the above examples of compounds of the invention were assessed in vitro by measuring their ability to inhibit CP55940-induced [^35S]GTPγS binding to membranes prepared from CHO-K1 cells expressing the human CB1 receptor (described in Transfection and Cell Culture). CP55940 is a well known non-selective CB1 and CB2 receptor agonist (e.g Felder et al., 1995, Molecular Pharmacology, (48) 443-50). Membranes were prepared by a standard procedure. Briefly, cells were harvested using 10 mM EDTA and collected by centrifugation. Pelleted cells were homogenized in ice-cold 20 mM Hepes (pH 7.4),10 mM EDTA and protease inhibitors (Complete protease inhibitor cocktail tablet, Roche) using an Ultra Turrax Homogenizer. The homogenate was centrifuged at 14 000 rpm for 45 min. at 4° C. The resultant pellet was resuspended in the same buffer but with only 0.1 mM EDTA and was again centrifuged at 14 000 rpm for 45 min. at 4° C. The resulting pellet (membranes) was resuspended in 20 mM Hepes (pH 7.4), 0.1 mM EDTA, 2 mM MgCl2 and protease inhibitors and protein concentration was determined by Micro BCA Protein Assay Reagent Kit (Pierce Biotechnology) according to the manufacturer instructions. The [^35S]GYPγS SPA (Scintillation Proximity Assay) binding assay was performed by incubating 5 μg/well hCB1-membranes with 1 nM [^35S]GYPγS (Perkin Elmer—NEG 030H) in the presence of 3 nM of CP55940 and various concentrations of the test compounds at room temperature for 1 hr in 96-well microtiter plates. 0.4 mg/well SPA beads (PVT-WGA; RPNQ0001 Amersham Pharmacia Biotech) were then added and the incubation continued for further 30 min. on an orbital shaker. The assay buffer contained 50 mM HEPES (pH 7.5), 50 mM NaCl, 2.5 mM MgCl2, 0.1% BSA, 1 μM GDP and 100 μg/ml Saponin. Microtiter plates were centrifuged at 1500 rpm for 5 min. and radioactivity was read immediately using a Topcounter (PerkinElmer Life Sciences). Data were analyzed and IC50 values determined by non-linear regression using the Prism software (GraphPad Software, San Diego).

T1 sequence (P21554 whole entry): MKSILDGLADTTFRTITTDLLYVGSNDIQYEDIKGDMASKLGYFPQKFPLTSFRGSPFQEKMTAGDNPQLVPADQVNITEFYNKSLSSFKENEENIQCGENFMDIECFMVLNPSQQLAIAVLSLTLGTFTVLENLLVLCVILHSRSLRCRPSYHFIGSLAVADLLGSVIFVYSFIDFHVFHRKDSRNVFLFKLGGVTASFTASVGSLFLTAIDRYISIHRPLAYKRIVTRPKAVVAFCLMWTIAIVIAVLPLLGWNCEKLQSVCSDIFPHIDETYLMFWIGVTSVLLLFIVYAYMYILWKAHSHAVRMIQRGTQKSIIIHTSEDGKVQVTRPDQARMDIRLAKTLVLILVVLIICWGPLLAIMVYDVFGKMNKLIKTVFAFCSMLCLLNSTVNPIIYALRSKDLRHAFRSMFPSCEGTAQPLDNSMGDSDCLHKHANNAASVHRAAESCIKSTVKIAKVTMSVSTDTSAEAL

C[C@@H](NC(=O)c1nn(-c2ccccc2Cl)c(-c2ccc(Cl)cc2)c1Cc1nn[nH]n1)c1ccc(Cl)c(F)c1 [[2.23], 1-(2-Chloro-phenyl)-5-(4-chloro-phenyl)-4-(2H-tetrazol-5-ylmethyl)-1H-pyrazole-3-carboxylic acid [(R)-1-(3-fluoro-4-chloro-phenyl)-ethyl]-amide]
IC50: < 300 nM

C[C@@H](NC(=O)c1nn(-c2ccccc2Cl)c(-c2ccc(Cl)cc2)c1Cc1nn[nH]n1)c1ccc(F)c(Cl)c1 [[2.24], 1-(2-Chloro-phenyl)-5-(4-chloro-phenyl)-4-(2H-tetrazol-5-ylmethyl)-1H-pyrazole-3-carboxylic acid [(R)-1-(3-chloro-4-fluoro-phenyl)-ethyl]-amide]
IC50: < 300 nM

C[C@@H](NC(=O)c1nn(-c2ccccc2Cl)c(-c2ccc(Cl)cc2)c1Cc1nnn[nH]1)c1cccc(Cl)c1 [[2.25], 1-(2-Chloro-phenyl)-5-(4-chloro-phenyl)-4-(1H-tetrazol-5-ylmethyl)-1H-pyrazole-3-carboxylic acid [(R)-1-(3-chloro-phenyl)-ethyl]-amide]
IC50: < 300 nM

C[C@@H](NC(=O)c1nn(-c2ccccc2Cl)c(-c2ccc(Cl)cc2)c1Cc1nn[nH]n1)c1ccc(OC(F)(F)F)cc1 [[2.26], 1-(2-Chloro-phenyl)-5-(4-chloro-phenyl)-4-(2H-tetrazol-5-ylmethyl)-1H-pyrazole-3-carboxylic acid [(R)-1-(4-trifluoromethoxyl-phenyl)-ethyl]-amide]
IC50: < 300 nM

C[C@H](c1ccc(OC(F)(F)F)cc1)N(C)C(=O)c1nn(-c2ccccc2Cl)c(-c2ccc(Cl)cc2)c1Cc1nnn[nH]1 [[2.27], 1-(2-Chloro-phenyl)-5-(4-chloro-phenyl)-4-(1H-tetrazol-5-ylmethyl)-1H-pyrazole-3-carboxylic acid methyl-[(R)-1-(4-trifluoromethoxy-phenyl)-ethyl]-amide]
IC50: < 300 nM

C[C@H](c1ccc(F)c(Cl)c1)N(C)C(=O)c1nn(-c2ccccc2Cl)c(-c2ccc(Cl)cc2)c1Cc1nnn[nH]1 [[2.28], 1-(2-Chloro-phenyl)-5-(4-chloro-phenyl)-4-(1H-tetrazol-5-ylmethyl)-1H-pyrazole-3-carboxylic acid methyl-[(R)-1-(3-chloro-4-fluoro-phenyl)-ethyl]-amide]
IC50: < 300 nM
